Data taken from patent publication US8614327B2 (Vertex Pharmaceuticals Incorporated, priority 2004, dated 2013).

Target: T1, ΔF508-CFTR (Homo sapiens, UniProt P13569, DEL508-508)
T1 construct: expressed in transfected cells
Test: Membrane potential optical (FRET/VIPR) assay, identification of potentiator compounds
Assay type: cell-based
Settings: Table 3, assay not given; for % Activity: relative efficacy
Summary of the method: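 NIH3T3 mouse fibroblasts stably expressing ΔF508-CFTR, temperature-corrected 24 h at 27° C., read on VIPR by FRET between CC2-DMPE and DiSBAC2(3). Potentiators identified in a double-addition format, first adding chloride-free (gluconate) medium with or without compound.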

T1 sequence (P13569 with tags, fused parts or gaps DEL508-508): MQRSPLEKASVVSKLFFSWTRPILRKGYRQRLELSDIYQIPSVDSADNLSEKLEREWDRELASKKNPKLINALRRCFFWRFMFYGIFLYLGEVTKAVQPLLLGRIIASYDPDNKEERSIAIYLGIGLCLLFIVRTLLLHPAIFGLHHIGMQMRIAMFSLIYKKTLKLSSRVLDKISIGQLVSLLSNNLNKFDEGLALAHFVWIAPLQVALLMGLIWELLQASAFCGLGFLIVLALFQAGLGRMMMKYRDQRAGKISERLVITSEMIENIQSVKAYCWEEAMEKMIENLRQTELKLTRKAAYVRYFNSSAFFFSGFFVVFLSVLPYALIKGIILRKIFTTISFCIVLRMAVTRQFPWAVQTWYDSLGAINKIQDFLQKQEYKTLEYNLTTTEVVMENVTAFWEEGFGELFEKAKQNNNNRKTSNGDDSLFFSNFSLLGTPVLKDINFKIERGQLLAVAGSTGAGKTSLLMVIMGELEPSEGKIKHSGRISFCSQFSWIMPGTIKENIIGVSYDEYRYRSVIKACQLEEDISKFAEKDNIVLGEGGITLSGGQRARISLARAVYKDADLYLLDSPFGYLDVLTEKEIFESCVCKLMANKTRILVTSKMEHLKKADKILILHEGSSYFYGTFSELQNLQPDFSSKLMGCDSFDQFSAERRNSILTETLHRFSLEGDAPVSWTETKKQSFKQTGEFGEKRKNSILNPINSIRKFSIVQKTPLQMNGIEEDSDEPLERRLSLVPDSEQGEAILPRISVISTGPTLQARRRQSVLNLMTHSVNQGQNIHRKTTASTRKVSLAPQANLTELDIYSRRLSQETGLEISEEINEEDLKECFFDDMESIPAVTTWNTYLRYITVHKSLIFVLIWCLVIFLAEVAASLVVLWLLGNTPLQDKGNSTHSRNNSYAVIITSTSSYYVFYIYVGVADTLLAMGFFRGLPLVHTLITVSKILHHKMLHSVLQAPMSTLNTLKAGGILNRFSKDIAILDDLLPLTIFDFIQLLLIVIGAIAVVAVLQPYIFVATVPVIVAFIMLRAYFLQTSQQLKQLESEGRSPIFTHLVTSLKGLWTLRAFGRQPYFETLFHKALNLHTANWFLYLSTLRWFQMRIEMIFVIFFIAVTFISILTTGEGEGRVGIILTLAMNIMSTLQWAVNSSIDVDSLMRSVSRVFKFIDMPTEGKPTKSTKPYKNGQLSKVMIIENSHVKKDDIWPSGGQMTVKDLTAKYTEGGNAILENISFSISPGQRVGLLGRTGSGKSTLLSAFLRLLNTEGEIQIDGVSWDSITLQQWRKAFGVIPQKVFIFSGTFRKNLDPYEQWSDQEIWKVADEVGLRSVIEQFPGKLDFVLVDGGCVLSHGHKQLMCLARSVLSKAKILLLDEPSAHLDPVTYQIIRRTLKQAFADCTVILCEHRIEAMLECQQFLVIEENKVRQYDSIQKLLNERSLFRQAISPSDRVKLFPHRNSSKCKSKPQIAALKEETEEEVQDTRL

EC50 | % Activity | SMILES
25 to 60 µM | + (<25%) | O=C(Nc1ccccc1-c1nc2ccccc2[nH]1)c1c[nH]c2ccccc2c1=O [Compound 227, N-[2-(3H-benzoimidazol-2-yl)phenyl]-4-oxo-1H-quinoline-3-carboxamide]
< 10 µM | ++ (between 25% to 100%) | COc1cccc(NC(=O)c2c[nH]c3ccccc3c2=O)c1 [Compound 408, N-(3-methoxyphenyl)-4-oxo-1H-quinoline-3-carboxamide]
< 10 µM | ++ (between 25% to 100%) | O=C(Nc1ccccc1-c1cccc(Cl)c1)c1c[nH]c2ccccc2c1=O [Compound 307, N-[2-(3-chlorophenyl)phenyl]-4-oxo-1H-quinoline-3-carboxamide]
< 10 µM | ++ (between 25% to 100%) | CN(c1ccc(F)cc1)S(=O)(=O)c1ccc2[nH]cc(C(=O)Nc3cc(O)c(C(C)(C)C)cc3C(C)(C)C)c(=O)c2c1 [Compound 137, 6-[(4-fluorophenyl)-methyl-sulfamoyl]-N-(5-hydroxy-2,4-ditert-butyl-phenyl)-4-oxo-1H-quinoline-3-carboxamide]
< 10 µM | ++ (between 25% to 100%) | CCOc1ccccc1-c1ccc(CNC(=O)OC(C)(C)C)cc1NC(=O)c1c[nH]c2ccccc2c1=O [Compound 304, {2′-Ethoxy-2-[(4-oxo-1,4-dihydroquinoline-3-carbonyl)-amino]-biphenyl-4-ylmethyl}-carbamic acid tert-butyl ester]
< 10 µM | ++ (between 25% to 100%) | O=C(Nc1ccc(N2CCC[C@@H]2C(=O)O)cc1C(F)(F)F)c1c[nH]c2ccccc2c1=O [Compound 698, (R)-1-[4-[(4-oxo-1H-quinolin-3-yl)carbonylamino]-3-(trifluoromethyl)phenyl]pyrrolidine-2-carboxylic acid]
< 10 µM | ++ (between 25% to 100%) | Cc1cccc2[nH]cc(C(=O)Nc3ccc(N4CC[C@@H](F)C4)cc3C(F)(F)F)c(=O)c12 [Compound 541, (R)-N-(4-(3-fluoropyrrolidin-1-yl)-2-(trifluoromethyl)phenyl)-5-methyl-4-oxo-1,4-dihydroquinoline-3-carboxamide]
< 10 µM | ++ (between 25% to 100%) | CCCOc1ccc(N)cc1NC(=O)c1c[nH]c2ccccc2c1=O [Compound 17, N-(5-Amino-2-propoxy-phenyl)-4-oxo-1H-quinoline-3-carboxamide]
< 10 µM | ++ (between 25% to 100%) | CCC(C)c1c[nH]c2cc(NC(=O)c3c[nH]c4ccccc4c3=O)ccc12 (stereo not shown) [Compound 259, 4-oxo-N-(3-sec-butyl-1H-indol-6-yl)-1H-quinoline-3-carboxamide]
< 10 µM | ++ (between 25% to 100%) | O=C(Nc1cc(O)c(Cl)cc1Cl)c1c[nH]c2ccccc2c1=O [Compound 608, N-(2,4-dichloro-5-hydroxy-phenyl)-4-oxo-1H-quinoline-3-carboxamide]
< 10 µM | ++ (between 25% to 100%) | COc1ccc2[nH]cc(C(=O)Nc3ccc(N4[C@H](C)CC[C@H]4C)cc3C(F)(F)F)c(=O)c2c1 [Compound 685, N-(4-((2R,5R)-2,5-dimethylpyrrolidin-1-yl)-2-(trifluoromethyl)phenyl)-6-methoxy-4-oxo-1,4-dihydroquinoline-3-carboxamide]
< 10 µM | ++ (between 25% to 100%) | CC(C)c1cccc(-c2ccccc2NC(=O)c2c[nH]c3ccccc3c2=O)c1 [Compound 290, N-[2-(3-isopropylphenyl)phenyl]-4-oxo-1H-quinoline-3-carboxamide]
< 10 µM | ++ (between 25% to 100%) | O=C(Nc1ccc(N2CCCC2)cc1C(F)(F)F)c1c[nH]c2ccccc2c1=O [Compound 658, 4-oxo-N-[4-pyrrolidin-1-yl-2-(trifluoromethyl)phenyl]-1H-quinoline-3-carboxamide]
 | +++ (>100%) | COc1ccc(OC)c(-c2ccccc2NC(=O)c2c[nH]c3ccccc3c2=O)c1 [Compound 361, N-[2-(2,5-dimethoxyphenyl)phenyl]-4-oxo-1H-quinoline-3-carboxamide]
 | +++ (>100%) | O=C(Nc1ccccc1-c1cccc(F)c1)c1c[nH]c2ccccc2c1=O [Compound 277, N-[2-(3-fluorophenyl)phenyl]-4-oxo-1H-quinoline-3-carboxamide]
< 10 µM | ++ (between 25% to 100%) | CCc1ccc(N(C)C)cc1NC(=O)c1c[nH]c2ccccc2c1=O [Compound 409, N-(5-dimethylamino-2-ethyl-phenyl)-4-oxo-1H-quinoline-3-carboxamide]
10 to 25 µM | ++ (between 25% to 100%) | COc1ncccc1NC(=O)c1c[nH]c2ccccc2c1=O [Compound 15, N-(2-methoxy-3-pyridyl)-4-oxo-1H-quinoline-3-carboxamide]

The next lines start with the molecule.

SMILES | EC50 | % Activity
CC(O)c1ccc(NC(=O)c2c[nH]c3ccccc3c2=O)cc1 (stereo not shown) [Compound 450, N-[4-(1-hydroxyethyl)phenyl]-4-oxo-1H-quinoline-3-carboxamide] | 10 to 25 µM | ++ (between 25% to 100%)
O=C(Nc1ccccc1N1CCCCC1)c1c[nH]c2ccccc2c1=O [Compound 26, 4-oxo-N-[2-(1-piperidyl)phenyl]-1H-quinoline-3-carboxamide] | < 10 µM | ++ (between 25% to 100%)
C=Cc1ccc(NC(=O)c2c[nH]c3ccccc3c2=O)cc1 [Compound 452, 4-oxo-N-(4-vinylphenyl)-1H-quinoline-3-carboxamide] | < 10 µM | ++ (between 25% to 100%)
CC(C)(C)c1ccc(NC(=O)c2c[nH]c3ccccc3c2=O)cc1 [Compound 448, 4-oxo-N-(4-tert-butylphenyl)-1H-quinoline-3-carboxamide] | < 10 µM | ++ (between 25% to 100%)
CC(C)(C)c1cc(C(C)(C)C)c(NC(=O)c2c[nH]c3cccc(N)c3c2=O)cc1O [Compound 585, 5-amino-N-(5-hydroxy-2,4-ditert-butyl-phenyl)-4-oxo-1H-quinoline-3-carboxamide] | < 10 µM | +++ (>100%)
O=C(Nc1cc(OCc2ccccc2)c(C2CCCCC2)cc1C(F)(F)F)c1c[nH]c2ccccc2c1=O [Compound 654, N-[5-benzyloxy-4-cyclohexyl-2-(trifluoromethyl)phenyl]-4-oxo-1H-quinoline-3-carboxamide] | < 10 µM | ++ (between 25% to 100%)
O=C(Nc1cc(O)c(C(F)(F)F)cc1F)c1c[nH]c2ccccc2c1=O [Compound 501, N-[2-fluoro-5-hydroxy-4-(trifluoromethyl)phenyl]-4-oxo-1H-quinoline-3-carboxamide] | < 10 µM | ++ (between 25% to 100%)
O=C(Nc1ccc(N2CCC[C@H]2C(=O)O)cc1C(F)(F)F)c1c[nH]c2ccccc2c1=O [Compound 567, (S)-1-[4-[(4-oxo-1H-quinolin-3-yl)carbonylamino]-3-(trifluoromethyl)phenyl]pyrrolidine-2-carboxylic acid] | < 10 µM | ++ (between 25% to 100%)
O=C(Nc1ccc(N2CCCCC2)cc1C(F)(F)F)c1c[nH]c2ccccc2c1=O [Compound 686, 4-oxo-N-[4-(1-piperidyl)-2-(trifluoromethyl)phenyl]-1H-quinoline-3-carboxamide] | < 10 µM | ++ (between 25% to 100%)
O=C(Nc1ccc(C(F)(F)F)c(O)c1)c1c[nH]c2cccc(O)c2c1=O [Compound 700, 5-hydroxy-N-[3-hydroxy-4-(trifluoromethyl)phenyl]-4-oxo-1H-quinoline-3-carboxamide] | < 10 µM | ++ (between 25% to 100%)
CCC(CC)(c1cc(F)c(NC(=O)c2cnc3ccccc3c2O)cc1O)C(C)(C)C [Compound 153, N-[4-(1,1-diethyl-2,2-dimethyl-propyl)-2-fluoro-5-hydroxy-phenyl]-4-hydroxy-quinoline-3-carboxamide] | < 10 µM | ++ (between 25% to 100%)
O=C(Nc1ccccc1-c1ccccc1F)c1c[nH]c2ccccc2c1=O [Compound 313, N-[2-(2-fluorophenyl)phenyl]-4-oxo-1H-quinoline-3-carboxamide] | < 10 µM | ++ (between 25% to 100%)
CN(C)c1ccc2[nH]cc(C(=O)Nc3cc(O)c(C(C)(C)C)cc3C(C)(C)C)c(=O)c2c1 [Compound 544, 6-dimethylamino-N-(5-hydroxy-2,4-ditert-butyl-phenyl)-4-oxo-1H-quinoline-3-carboxamide] | < 10 µM | ++ (between 25% to 100%)
CC(=O)c1ccccc1NC(=O)c1c[nH]c2ccccc2c1=O [Compound 365, N-(2-acetylphenyl)-4-oxo-1H-quinoline-3-carboxamide] | 10 to 25 µM | ++ (between 25% to 100%)
COc1ccc(C(C)(C)C)cc1NC(=O)c1c[nH]c2ccccc2c1=O [Compound 211, N-(2-methoxy-5-tert-butyl-phenyl)-4-oxo-1H-quinoline-3-carboxamide] | < 10 µM | ++ (between 25% to 100%)
O=C(Nc1ccc(S(=O)(=O)Nc2ccccn2)cc1)c1c[nH]c2ccccc2c1=O [Compound 21, 4-oxo-N-[4-(2-pyridylsulfamoyl)phenyl]-1H-quinoline-3-carboxamide] | 25 to 60 µM | + (<25%)
O=C(Nc1ccccc1-c1ccc(Cl)cc1)c1c[nH]c2ccccc2c1=O [Compound 424, N-[2-(4-chlorophenyl)phenyl]-4-oxo-1H-quinoline-3-carboxamide] | < 10 µM | ++ (between 25% to 100%)
CCOC(=O)Nc1cc(NC(=O)c2c[nH]c3ccccc3c2=O)ccc1CC [Compound 298, [2-ethyl-5-[(4-oxo-1H-quinolin-3-yl)carbonylamino]phenyl]aminoformic acid ethyl ester] |  | ++ (between 25% to 100%)
